Data as given in patent US20080153818A1, “METHODS FOR PREVENTING INFLAMMATION DURING SURGERY” (priority 2006, published 2008).

Key:
[1] = test system: existing laser-induced choroidal neovascularization (CNV); test: Mouse laser-induced CNV, regression paradigm, oral gavage from day 7; format: in vivo; settings: 3 mg/kg/day oral from day 7
[2] = test system: laser-induced choroidal neovascularization (CNV); test: Mouse laser-induced CNV, prevention paradigm, oral gavage; format: in vivo; settings: for inhibition of CNV (in words): prevention paradigm, 14 days
[3] = test system: preretinal neovascularization (NV) in the rat model of oxygen-induced retinopathy (OIR); test: Rat oxygen-induced retinopathy (OIR) model, single intravitreal injection; format: in vivo, Sprague-Dawley rats
From the text: METHODS. Pregnant Sprague-Dawley rats were received at 14 days gestation and subsequently gave birth on Day 22±1 of gestation. Immediately following parturition, pups were pooled and randomized into separate litters (n=17 pups/litter), placed into separate shoebox cages inside oxygen delivery chamber, and subjected to an oxygen-exposure profile from Day 0-14 postpartum. Litters were then placed into room air from Day 14/0 through Day 14/6 (days 14-20 postpartum). Additionally on Day 14/0, each pup was randomly assigned as an oxygen-exposed control or into various treatment groups. For those randomized into an injection treatment group: one eye received a 5 μl intravitreal injection of 0.1%, 0.3%, 0.6%, or 1% RTKi and the contralateral eye received a 5 μl intravitreal injection of vehicle. At Day 14/6 (20 days postpartum), all animals in both studies were euthanized.
Immediately following euthanasia, retinas from all rat pups were harvested, fixed in 10% neutral buffered formalin for 24 hours, subjected to ADPase staining, and fixed onto slides as whole mounts. Digital images were acquired from each retinal flat mount that was adequately prepared. Computerized image analysis was used to obtain a NV clockhour score from each readable sample. Each clockhour out of 12 total per retina was assessed for the presence or absence of preretinal NV. […]

[4] = test system: existing laser-induced choroidal neovascularization (CNV); test: Mouse laser-induced CNV, regression of existing CNV, intravitreal injection at day 7; format: in vivo; settings: single intravitreal injection
Method: (§1) METHODS. CNV was generated by laser-induced rupture of Bruch's membrane. Briefly, 4 to 5 week old male C57BL/6J mice were anesthetized using intraperitoneal administration of ketamine hydrochloride (100 mg/kg) and xylazine (5 mg/kg) and the pupils of both eyes dilated with topical ocular instillation of 1% tropicamide and 2.5% Mydfin®. One drop of topical cellulose (Gonioscopic®) was used to lubricate the cornea. A hand-held cover slip was applied to the cornea and used as a contact lens to aid visualization of the fundus. Three to four retinal burns were placed in randomly assigned eye (right or left eye for each mouse) using the Alcon 532 nm EyeLite laser with a slit lamp delivery system. The laser burns were used to generate a rupture in Bruch's membrane, which was indicated ophthalmoscopically by the formation of a bubble under the retina. Only mice with laser burns that produced three bubbles per eye were included in the study. Burns were typically placed at the 3, 6, 9 or 12 o'clock positions in the posterior pole of the retina, avoiding the branch retinal arteries and veins.
(§2) Each mouse was randomly assigned into one of the following treatment groups: noninjected controls, sham-injected controls, vehicle-injected mice, or one of three RTKi-injected groups. […]
METHODS. […] Choroidal flat mounts were analyzed as described above in Example 3.

[5] = test system: laser-induced choroidal neovascularization (CNV); test: Mouse laser-induced CNV, prevention, intravitreal injection; format: in vivo, C57BL/6J mice
Method: as §1, §2

[6] = test system: diabetes-induced retinal vascular permeability (STZ rat model); test: STZ diabetic rat retinal vascular permeability, oral gavage; format: in vivo
Method: METHODS. Diabetes was induced in male Long-Evans rats with 65 mg/kg streptozotocin (STZ) after an overnight fast. Upon confirmation of diabetes (blood glucose >250 mg/dl), treatment was initiated by oral gavage. Non-diabetic (NDM) and diabetic (DM) rats received oral gavage of either vehicle or RTK inhibitor at 1.5 or 5 mg/kg/d BID. After 2 weeks, jugular vein catheters were implanted 1 day prior to experimentation for the infusion of indicator dye. Retinal vascular permeability, RVP, was measured using Evan's blue albumin permeation (45 mg/kg) after a 2 hour circulation period.

[7] = test system: preretinal neovascularization (NV) in the rat OIR model; test: Rat OIR model, oral gavage; format: in vivo, Sprague-Dawley rats
Method: Immediately following euthanasia, retinas from all rat pups were harvested, fixed in 10% neutral buffered formalin for 24 hours, subjected to ADPase staining, and fixed onto slides as whole mounts. Digital images were acquired from each retinal flat mount that was adequately prepared. Computerized image analysis was used to obtain a NV clockhour score from each readable sample. Each clockhour out of 12 total per retina was assessed for the presence or absence of preretinal NV. Statistical comparisons using median scores for NV clockhours from each treatment group were utilized in nonparametric analyses. Each noninjected pup represented one NV score by taking the average value of both eyes and was used in comparisons against each dosage group. Because the pups were randomly assigned and no difference was observed between oxygen-exposed control pups from all litters, the NV scores were combined for all treatment groups. P≦0.05 was considered statistically significant.
METHODS. Pregnant Sprague-Dawley rats were received at 14 days gestation and subsequently gave birth on Day 22±1 of gestation. Immediately following parturition, pups were pooled and randomized into separate litters (n=17 pups/litter), placed into separate shoebox cages inside oxygen delivery chamber, and subjected to an oxygen-exposure profile from Day 0 to Day 14 postpartum. Litters were then placed into room air from Day 14/0 through Day 14/6 (days 14-20 postpartum). Additionally on Day 14/0, each pup was randomly assigned as oxygen-exposed controls, vehicle treated, or drug-treated at 1.5, 5, 10 mg/kg, p.o., BID. At Day 14/6 (20 days postpartum), all animals in both studies were euthanized and retina whole mounts were prepared as described in Example 1 above.

[8] = NDM and DM groups, oral gavage, 2 weeks

Cc1ccc(F)c(NC(=O)Nc2ccc(-c3cccc4[nH]nc(N)c34)cc2)c1 [Compound 86, N-[4-[3-amino-1H-indazol-4-yl]phenyl]-N′-(2-fluoro-5-methylphenyl)urea]
regression of existing CNV (in words) [1]: did not show a significant regression
effect on laser-induced CNV (in words, FIG. 6) ([2]; oral gavage): inhibits
inhibition of CNV (in words) ([2]; 3 mg/kg/day oral gavage): no significant inhibition
inhibition of CNV (in words) ([2]; 20 mg/kg/d oral gavage): complete inhibition
efficacy against preretinal NV (in words) ([3]; 0.1% treated eyes, intravitreal): Efficacy was not observed
effect on preretinal neovascularization (in words, FIG. 1) ([3]; single intravitreal injection): inhibits
effect on existing laser-induced CNV (in words, FIG. 4) [4]: induces regression
difference in CNV versus vehicle injected eyes (in words) ([5]; 0.3% RTKi, intravitreal): marginal statistical difference
effect on laser-induced CNV (in words, FIG. 3) ([5]; single intravitreal injection): inhibits
RVP (in words) ([6]; NDM (non-diabetic) rats, 5 mg/kg/d oral gavage): unchanged
systemic or ERG side effects [6, 8]: no observed systemic or ERG side effects
tolerability of oral treatment [6, 8]: well tolerated
decrease in NV (in words) ([7]; 3 mg/kg/day p.o.): did not have a significant decrease
inhibition of preretinal NV (in words) ([7]; 20 mg/kg/day p.o.): complete inhibition
effect on preretinal neovascularization (in words, FIG. 2) ([7]; oral gavage): prevents
